In US20090123940A1, “MOLECULES INVOLVED IN SYNAPTOGENESIS AND USES THEREFOR” (THE JOHNS HOPKINS UNIVERSITY, priority 2007, published 2009):

Tests used:
[1] = system: Schaffer collateral-CA1 synapse; test: mGluR1/5-dependent LTD in hippocampal slices (field EPSP recording); format: cell-based, mouse; details: for fEPSP slope after DHPG-induced LTD: control mouse slices, t=75 min, DHPG 50 μM for 5 min, TAPI-2 50 μM for 20 min starting 15 min before DHPG
Method: mGluR1/5-dependent LTD in hippocampus. Hippocampal slices from postnatal day 21 to 28 mice were prepared as previously described (Huber et al., Science 288:1254-[…]). […] Transverse slices (400 μm thick) were cut on a Vibratome 3000 (The Vibratome company). Slices were transferred to a reservoir chamber filled with a normal aCSF which comprised (in mM): 124 mM NaCl, 2.5 mM KCl, 1.3 mM MgCl2, 2.5 mM CaCl2, 1 mM NaH2PO4, 26.2 mM NaHCO3, and 20 D-glucose. Slices were allowed to recover for 2-6 hr at room temperature (22-24° C.). For recording, slices were transferred to an interface type chamber, maintained at 32° C. for 1 hr, and perfused continuously with aCSF at a rate of 2.5 mL/min. Standard methods were used to record field EPSPs (fEPSPs) from the stratum radiatum in response to stimulation of the Schaffer collateral-commissural pathway with a concentric bipolar tungsten electrode (FHC, Bowdoin, Me.). The stimulus intensity was adjusted to elicit 50-60% of the maximal response. Evoked responses were stored on-line and analyzed off-line using Clampfit (Ver. 9.2). […] The strength of the synaptic response was measured as the fEPFP slope. […] LTD was expressed as percentage of the fEPSP slope during the baseline recording. All data shown for the time course are mean±SEM.

[2] = system: surface GluR1 / surface LFC-NPR; test: Cell surface biotinylation of cultured cortical neurons; format: cell-based; details: for surface LFC-NPR: cultured cortical neurons after DHPG treatment
Method: Cell Surface Biotinylation. Surface biotinylation of GluR1 at the plasma membrane was described previously (Snyder et al., Nat Neurosci 4:1079-85, 2001) with some modifications. Cultured cortical neurons were treated with DHPG for 5 minutes. Medium was then replaced with previously cultured medium. After 45 minutes, neurons were cooled on ice and washed with cold PBS containing 1 mM CaCl2 and 0.5 mM MgCl2 (PBS++). Cell surface proteins were labeled with cell-impermeable EZ-Link Sulfo-NHS-SS-Biotin (sulfosuccinimidyl-2-(biotinamido)ethyl-1,3-dithiopropionate; Pierce) in PBS^++ (1 mg/mL) at 4° C. for 30 min. Unreacted biotin was quenched by washing cells with cold 100 mM Glycine (pH 7.4). Cultures were lysed using RIPA buffer and homogenates were centrifuged at 13, 200 rpm to remove debris. 10% of the homogenates were used for total protein. 90% of the remaining homogenates were incubated with immobilized NeutrAvidin beads (Pierce). After washing with RIPA buffer, bound proteins were eluted with 2× Laemmli sample buffer supplemented with 2% β-ME. The eluted proteins were subjected to SDS-PAGE and Western blotting followed by ECL (Amersham Biosciences) and exposure to autoradiography film. Primary antibody concentrations were as follows: GluR1N at 0.12 μg/mL and β-actin at 1:1000. Quantification performed on digital images scanned from exposure matched autoradiographs. Densitometric analysis of these digital images was performed using ImageJ software (Version 1.33, National Institutes of Health). Significance was determined by paired Student's T-test.

[3] = system: GluR1; test: Immunocytochemical staining of surface and internalized GluR1 in cultured hippocampal neurons; format: cell-based
Method: Immunocytochemical staining. Immunocytochemical staining of heterologous cells was performed as described (Xu et al., supra). For PMA-stimulation experiments, PMA (Sigma Cat #: P8139) at (150 nM) was added 90 minutes prior to live staining. Images were viewed and captured using Nikon E800 epifluorescence microscope fitted with a Princeton Instruments CCD camera. For live staining, neurons cultured on coverslips were incubated at 10° C. with the appropriate primary antibodies at the indicated dilutions in conditioned culture medium for 20 min. They were then washed with PBS and fixed with 4% paraformaldehyde/4% sucrose in PBS for 20 min at room temperature. Cells were permeablized with 0.2% Triton X-100 in PBS for 5 min and then blocked in 10% normal goat serum in PBS for 1 hr at room temperature. If intracellular proteins were of interest, coverslips were then incubated with antibody diluted in 10% normal goat serum for 1 hr at room temperature or overnight at 4° C. Coverslips were washed with PBS and incubated with secondary antibody conjugated to Alexa488 and Alexa555 (1:500 in 10% normal goat serum, Molecular Probes Eugene, Oreg.). Coverslips were mounted using the Prolong Antifade Kit (Molecular Probes, Eugene, Oreg.). For immunocytochemistry studies, mGluR1/5 were activated using the selective agonist (S)-DHPG (Tocris Cat.# 0805) with mGluR5 allosteric potentiator DFB (Tocris Cat.#1625). Neurons were incubated with DFB (50 μM) for 5 min and then DHPG (50 μM) for an additional 5 min in neuronal incubation medium and then transferred into the original incubation medium. […] Cells were incubated at 37° C. to allow endocytosis. At indicated time points, cells were incubated with N-terminal GluR1 mouse antibody (JH 4093; 0.2 μg/100 μl; kind gift from T. […] (to block endocytosis during staining). Cells were then processed for immunofluorescent staining as described above. An acid strip protocol was employed to measure endocytosed antibody labeled GluR1 (Snyder et al., 2001). Neurons were washed with progressively cooler NIM to slow basal endocytosis. Cells were then live labeled at 10° C. with GluR1 N-terminal antibody (0.2 μg/100 μL JH4094) antibody in NIM for 20 min. After washing unbound excess antibody, cells were incubated sequentially with DFB, DHPG, and original incubation medium at 37° C., as described above. After appropriate incubation times, cells were washed with 4° C. TBS. […] Neurons were then washed with 4° C. TBS followed by processing for immunofluorescent staining as described above. All neurons were viewed and captured using UltraVIEW spinning disk confocal microscope (PerkinElmer Life Sciences, Wellesley, Mass., USA) with a Nikon Eclipse TE 200 microscope and a 63× objective (Nikon, Melville, N.Y.). Images were acquired and saved as Tiff files with a dynamic range of 65536 grey levels (16-bit binary). Image analysis was performed using Metamorph imaging software (Universal Imaging, Downingtown, Pa.). For quantification of the punctate structures (e.g. GluR1), images were thresholded by grey value to differentiate single puncta. Segments of dendrites were selected and number of puncta was calculated per […] of length dendrite. Figures show ratios of calculated mean densities (number of puncta per unit length) from treated/control. Error bars were calculated using SEM and Gaussian error propagation. n=number of measured dendrites. Significance was determined by paired Student's T-test.

[4] = TAPI-2 = pretreatment before DHPG
[5] = cultured cortical neurons, 45 min after DHPG treatment, TAPI-2 = pretreatment before DHPG
[6] = cultured hippocampal neurons DIV 14-17, 45 min after DHPG, TAPI-2 = pretreatment (50 μM) before DHPG
[7] = neurons derived from control mice

| Compound | initial, phasic EPSP depression during DHPG treatment ([1]; TAPI-2 50 μM) | basal fEPSP slope or probability of release as indexed by paired pulse ratio (PPR) ([1]; TAPI-2 50 μM for 20 min) | fEPSP slope after DHPG-induced LTD [1] | PP-1 Hz induced LTD (fEPSP slope) ([1]; control slices pretreated with TAPI-2 50 μM, t=50 min, n=4) | surface LFC-NPR [2, 4] | surface GluR1 [2, 5] | surface GluR1 puncta density [3, 6] | DHPG-induced LTD (fEPSP slope) ([1]; slices from NP TKO mice, n=9) | DHPG-induced LTD (fEPSP slope) ([1]; slices from NPR KO mice, n=7) | DHPG-induced LTD (fEPSP slope) ([1]; slices from wild-type mice, n=13) | surface GluR1 ([2]; neurons cultured from NP TKO mouse cortex, after DHPG) | surface GluR1 ([2]; neurons cultured from control mouse cortex, 45 min after DHPG) | surface GluR1 puncta density ([3]; DHPG treated neurons cultured from NP TKO mice) | surface GluR1 puncta density ([3]; DHPG treated neurons derived from control mice) | internalized GluR1 (acid-strip protocol) [3, 7] | time to maximal internalized GluR1 after addition of DHPG [3, 7] | GluR1 internalization (acid-strip protocol) ([3]; neurons from NP TKO mice) |
| --- | --- | --- | --- | --- | --- | --- | --- | --- | --- | --- | --- | --- | --- | --- | --- | --- | --- |
| CC(C)C[C@H](CC(=O)NO)C(=O)N[C@H](C(=O)N[C@@H](C)C(=O)NCCN)C(C)(C)C [TAPI-2] | no effect | did not alter | 93.8±2.5 % of baseline | 101.8±5.6 % of baseline | 108.9±16.0 % of vehicle control | 102.4±4.9 % of vehicle control | 84.7±12.6 % of vehicle control | – | – | – | – | – | – | – | – | – | – |
| N[C@H](C(=O)O)c1cc(O)cc(O)c1 [DHPG, (S)-3,5-dihydroxyphenylglycine] | – | – | 74.0±3.3 % of baseline | – | 84.3±7.2 % of vehicle control | 74.1±2.2 % of vehicle control | 47.6±8.5 % of vehicle control | 85.9±4.1% | 96.3±2.5% | 68.6±3.7% | 98.4±9.7 % of vehicle control | 46.3±8.3 % of vehicle control | 113.4±6.3 % of vehicle control | 68.5±6.0 % of vehicle control | evoked an increase in internalized GluR1 | ≤ 5 min | did not increase GluR1 internalization |
